{"source": "patent US20150328109A1", "about": "“DERMAL COMPOSITIONS CONTAINING UNNATURAL HYGROSCOPIC AMINO ACIDS” (MEDPHARM LIMITED, priority 2012, published 2015)", "test": "In vitro permeation of Acyclovir through epidermal membrane in Franz type diffusion cells after amino acid pre-treatment", "type": "in vitro ADME, Human", "settings": "maximal enhancement of the drug's permeation by amino acid pre-treatment", "method": "Acyclovir (ACV), metronidazole and diclofenac diethylamine (DDEA) were analysed using HPLC, using of a Waters Alliance Separations Module and Waters detector. The temperature of the column and samples were maintained at 45±2° C. and 5.0±2° C., respectively. A Kinetix™ C-18 (Phenomenex, USA) column (150 mm×4.6 mm 5 μm particle size) with a guard column (Phenomenex USA, C-18 4.0×3.0 mm) was employed as the stationary phase. The mobile phase was three part; mobile phase A, water; mobile phase B, methanol; and mobile phase C, 10 mM ammonium phosphate buffer pH 2.5. The mobile phase was run using a gradient flow (Table 2) with a flow rate of 0.8 mL/min. Samples were run for 12 minutes with an injection volume of 10 μL. Acyclovir, metronidazole and DDEA were processed at a wavelength of 276 nm, with approximate retention times of 4.7, 6.5, and 8.7 min, respectively. Calibration curves were constructed from a series of standards prepared by serial dilution in conjunction with separately prepared quality controls. […] Data were recorded and analysed using Empower Pro^3 Software. […]\nThree experiments were performed, one for each API (Acyclovir, metronidazole and DDEA). […] The integrity of the epidermal membrane was assessed using electrical resistance to ensure the epidermal membrane was intact. […] Samples were analysed using HPLC and the level of each API that had permeated was quantified.", "data": [{"smiles": "Nc1nc2c(ncn2COCCO)c(=O)[nH]1", "note": "[ACV, Acyclovir]", "values": [{"measurement": "ER (drug absorption enhancement factor)", "result": 12}]}]}
